Laboratory results published in patent US20160235778A1, “COMPOSITIONS CONTAINING PUFA, URIDINE AND CHOLINE AND METHODS OF USE THEREOF” (MASSACHUSETTS INSTITUTE OF TECHNOLOGY, priority 2014, published 2016).

How the values were obtained:
Rat hippocampal cells = assay: 14C-choline incorporation into PC in cultured hippocampal neurons; type: cell-based; details: DHA+choline, 14C-choline 2 h, FIG. 10
Protocol: Rat hippocampal cells were cultured for 3 weeks in Neutrobasal plus B27 medium, to reach full maturation. On the day of the experiment, cells were incubated with DMEM+choline, with or without added DHA. ^14C-choline was added, cells were incubated for an additional 2 h, and newly-formed ^14C-labeled PC was extracted and measured as described in Example 1.

brain CDP-choline = assay: Brain CDP-choline and CDP-ethanolamine levels (HPLC); type: in vivo; details: gerbil
Protocol: FIG. 5A-B. Effects of DHA on brain CDP-choline levels (FIG. 5A) and CDP-ethanolamine levels (FIG. 5B). Groups of 8 gerbils received either a control or a UMP-containing diet, and, by gavage, DHA (in a vehicle of 5% gum Arabic solution) or 5% gum Arabic solution alone for 28 days. On the 29th day brains were harvested and assayed for CDP-choline. Data are presented as means±SEM. Statistical analysis was performed using one- or two-way ANOVA followed by Tukey test. a: P<0.05 when compared with the values for control diet plus vehicle group; b: P<0.05 when compared with values for UMP diet plus vehicle group.
Aliquots (2 ml) of the upper (aqueous) phase were dried under a vacuum, reconstituted, and injected into an HPLC. The dried samples were reconstituted in 100-200 μl water and were analyzed by HPLC on an anion exchange column (Alltech Hypersil APS-2, […], 250×4.6 mm). CDP-choline was eluted with a linear gradient of buffers A (H3PO4, 1.75 mM, pH 2.9) and B (NaH2PO2, 500 mM, pH 4.5) from 0 to 100% B over period of 30 min. With this system, CDP-choline was resolved from closely co-eluting substances such as UMP in an isocratic system over a period of 40 min. The retention time for CDP-choline was 9.5 min. The column was washed with buffer B at the end of each experiment and every several days to remove retained nucleotides. Individual nucleotide peaks were detected by UV absorption at 280 nm and were identified by comparison with the positions of authentic standards, as well as by the addition of nucleotide standards to samples.

brain phospholipids = assay: Brain phospholipid levels in gerbils given UMP diet and/or PUFA by gavage; type: in vivo, gerbil; design: PC / PE / PS / PI: unit not given here
Protocol: Control standard diet (Table 4) consisted of Teklad Global 16% protein rodent diet (Harlan Teklad, Madison, Wis.), which contained 0.1% choline chloride (CC), corresponding to a daily dose of 50 mg/kg/day. UMP was provided as 0.5% UMP·2Na^+ weight/weight, added to the control diet, also prepared by Harlan Teklad, corresponding to 240 mg/kg/day UMP. DHA was administered as 300 mg/kg/day in 200 microliter (mcL)/day 5% Arabic Gum solution, while groups not receiving DHA were administered vehicle (5% Arabic Gum) alone. DHA was provided by Nu-Chek Prep (Elysian, MN) and UMP by Numico (Wagenigen, NL).
Gerbils were anesthetized with ketamine and xylazine (80 and 10 mg/kg bwt, i.p.) and sacrificed by immersing the head into liquid nitrogen for 2 min, followed by decapitation. Brains were immediately and quickly (30 seconds) removed using a bone rongeur and stored at −80° C.
Frozen brain hemispheres were weighed and homogenized in 100 volumes of ice-cold deionized water using a tissue degrader (Polytron PT 10-35, Kinematica AG, Switzerland), then analyzed as described in Example 1.
Protein in whole brain homogenate sample was measured for using bicinchoninic acid reagent (Perkin Elmer, Norwalk, Conn., USA). DNA was measured by measuring 460 nm emission of samples on a fluorometer in the presence of bisbenzimidizole, a fluorescent dye known as Hoechst H 33258 (American Hoechst Corporation), which has an excitation maximum at 356 nm and an emission maximum of 458 when bound to DNA.
Male gerbils weighing 80-100 g were divided into 4 groups of 8 gerbils and administered the supplements depicted in Table 1:
Adult gerbils were administered control standard diet (Table 4) with our without 0.5% UMP and/or 300 mg/kg/day DHA, EPA, or AA. Groups not receiving DHA were administered vehicle (5% Arabic Gum) alone.

[1] = gerbil brain, 3 weeks, 0.5% UMP and/or 300 mg/kg/day PUFA, Table 6
[2] = gerbil brain, 4 weeks, normalized to DNA levels, mean +/- SEM
[3] = gerbil brain, 4 weeks, normalized to protein levels, mean +/- SEM
[4] = gerbil, Table 5A study, vs control

Structure (SMILES): CCC=CCC=CCC=CCC=CCC=CCC=CCCC(=O)O [DHA, 4,7,10,13,16,19-docosahexaenoic acid]
- increase in synthesis of phospholipids relative to choline alone (control) (Rat hippocampal cells): more than 2 fold
- reduction of brain CDP-choline levels in UMP-treated gerbils (brain CDP-choline; 28 days, compared with UMP-containing diet and DHA's vehicle): 21%
- reduction of brain CDP-choline levels (brain CDP-choline; 28 days, compared with control diet and DHA's vehicle): 26%
- brain CDP-choline levels, in words (brain CDP-choline; FIG. 5A): decreased
- brain CDP-ethanolamine levels, in words (brain CDP-choline; FIG. 5B): decreased
- PC (brain phospholipids; [1]): 133 ± 6
- PE (brain phospholipids; [1]): 77 ± 2
- PI (brain phospholipids; [1]): 18 ± 2
- PS (brain phospholipids; [1]): 34 ± 3
- SM (brain phospholipids; [1]): 24 ± 2
- Total PL (brain phospholipids; [1]): 344 ± 16
- PC (brain phospholipids; [2]): 366 ± 13
- PE (brain phospholipids; [2]): 196 ± 18
- PI (brain phospholipids; [2]): 84 ± 13
- PS (brain phospholipids; [2]): 98 ± 7
- SM (brain phospholipids; [2]): 126 ± 8
- Total PL (brain phospholipids; [2]): 909 ± 77
- PC (brain phospholipids; [3]): 185 ± 12
- PE (brain phospholipids; [3]): 78 ± 5
- PI (brain phospholipids; [3]): 32 ± 2
- PS (brain phospholipids; [3]): 39 ± 3
- SM (brain phospholipids; [3]): 56 ± 3
- Total PL (brain phospholipids; [3]): 392 ± 20
- increase in levels of total phospholipids (brain phospholipids; gerbil brain, 4 weeks, vs control group): 12%
- PtdCho (brain phospholipids; gerbil brain, Table 5 part A): 185 ± 12 nmol/mg prt
- PtdEtn (brain phospholipids; gerbil brain, Table 5 part A): 78 ± 5 nmol/mg prt
- PtdIns (brain phospholipids; gerbil brain, Table 5 part A): 32 ± 2 nmol/mg prt
- PtdSer (brain phospholipids; gerbil brain, Table 5 part A): 39 ± 3 nmol/mg prt
- SM (brain phospholipids; gerbil brain, Table 5 part A): 56 ± 3 nmol/mg prt
- Total PL (brain phospholipids; gerbil brain, Table 5 part A): 392 ± 20 nmol/mg prt
- brain phospholipid levels, in words (brain phospholipids; gerbil, 3 weeks): increased phospholipid levels
- increase in brain level of PC (brain phospholipids; [4]): 22%
- increase in brain level of PE (brain phospholipids; [4]): 20%
- increase in brain level of PI (brain phospholipids; [4]): 52%
- increase in brain level of sphingomyelin (brain phospholipids; [4]): 24%
